# Experiments:
# CDK12 = molecular target: T1, CDK12 (Homo sapiens, UniProt Q9NYV4); assay: CDK12 nuclear protein level: immunofluorescence/high content analysis in CAL-120 cells; type: cell-based; conditions: for DC50: CAL-120 cells, 24 h, nuclear CDK12 staining, read-out: CDK12 degradation IF DC50-[mol/l] (median); for (IC50 CDK12 high ATP) to (Degradation DC50 CDK12) ratio: IC50 CDK12 hATP (Table 2) divided by DC50 CDK12 IF (Table 8)
# T1 construct: endogenous in cells; host or cells: CAL-120 human breast cancer cells (DSMZ ACC 459)
# T1 sequence (Q9NYV4 whole entry): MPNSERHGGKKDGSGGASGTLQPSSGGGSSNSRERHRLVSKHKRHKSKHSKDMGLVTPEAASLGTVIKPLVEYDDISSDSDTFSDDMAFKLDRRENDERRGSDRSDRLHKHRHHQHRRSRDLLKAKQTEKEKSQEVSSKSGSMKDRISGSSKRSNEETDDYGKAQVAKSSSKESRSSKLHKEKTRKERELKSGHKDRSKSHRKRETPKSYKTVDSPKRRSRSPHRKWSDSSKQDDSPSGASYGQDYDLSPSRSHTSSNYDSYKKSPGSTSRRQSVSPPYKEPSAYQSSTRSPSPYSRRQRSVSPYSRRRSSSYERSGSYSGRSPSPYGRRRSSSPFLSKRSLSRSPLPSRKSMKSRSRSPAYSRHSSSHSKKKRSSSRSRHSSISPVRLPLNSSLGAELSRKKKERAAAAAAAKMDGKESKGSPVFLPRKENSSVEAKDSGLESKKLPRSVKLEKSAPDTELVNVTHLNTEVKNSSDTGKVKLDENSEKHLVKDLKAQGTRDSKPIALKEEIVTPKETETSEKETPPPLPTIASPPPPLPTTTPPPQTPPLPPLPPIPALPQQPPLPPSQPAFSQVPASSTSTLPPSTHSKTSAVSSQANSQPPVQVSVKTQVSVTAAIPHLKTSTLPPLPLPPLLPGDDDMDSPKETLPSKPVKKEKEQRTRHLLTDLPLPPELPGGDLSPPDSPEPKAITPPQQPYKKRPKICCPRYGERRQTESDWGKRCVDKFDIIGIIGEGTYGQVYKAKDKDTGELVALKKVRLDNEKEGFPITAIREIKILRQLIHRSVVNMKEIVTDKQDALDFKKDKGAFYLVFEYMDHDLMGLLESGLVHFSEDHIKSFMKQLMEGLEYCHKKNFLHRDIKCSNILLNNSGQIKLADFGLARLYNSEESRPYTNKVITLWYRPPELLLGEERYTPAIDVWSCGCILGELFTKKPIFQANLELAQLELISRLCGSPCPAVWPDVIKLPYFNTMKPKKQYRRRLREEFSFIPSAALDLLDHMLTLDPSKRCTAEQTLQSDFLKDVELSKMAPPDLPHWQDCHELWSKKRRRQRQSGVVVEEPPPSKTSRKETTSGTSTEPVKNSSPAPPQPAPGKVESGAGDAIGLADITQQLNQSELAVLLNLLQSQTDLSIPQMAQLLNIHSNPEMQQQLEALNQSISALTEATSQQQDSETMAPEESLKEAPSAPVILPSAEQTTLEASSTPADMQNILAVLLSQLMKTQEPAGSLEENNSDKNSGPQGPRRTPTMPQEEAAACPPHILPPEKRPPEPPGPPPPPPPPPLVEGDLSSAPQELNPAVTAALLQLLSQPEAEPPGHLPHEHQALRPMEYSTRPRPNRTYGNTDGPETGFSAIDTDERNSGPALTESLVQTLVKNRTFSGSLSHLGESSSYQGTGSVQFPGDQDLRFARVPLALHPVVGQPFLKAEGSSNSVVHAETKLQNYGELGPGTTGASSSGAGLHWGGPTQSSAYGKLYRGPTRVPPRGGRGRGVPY
# T1 sequence (O75909 whole entry partner): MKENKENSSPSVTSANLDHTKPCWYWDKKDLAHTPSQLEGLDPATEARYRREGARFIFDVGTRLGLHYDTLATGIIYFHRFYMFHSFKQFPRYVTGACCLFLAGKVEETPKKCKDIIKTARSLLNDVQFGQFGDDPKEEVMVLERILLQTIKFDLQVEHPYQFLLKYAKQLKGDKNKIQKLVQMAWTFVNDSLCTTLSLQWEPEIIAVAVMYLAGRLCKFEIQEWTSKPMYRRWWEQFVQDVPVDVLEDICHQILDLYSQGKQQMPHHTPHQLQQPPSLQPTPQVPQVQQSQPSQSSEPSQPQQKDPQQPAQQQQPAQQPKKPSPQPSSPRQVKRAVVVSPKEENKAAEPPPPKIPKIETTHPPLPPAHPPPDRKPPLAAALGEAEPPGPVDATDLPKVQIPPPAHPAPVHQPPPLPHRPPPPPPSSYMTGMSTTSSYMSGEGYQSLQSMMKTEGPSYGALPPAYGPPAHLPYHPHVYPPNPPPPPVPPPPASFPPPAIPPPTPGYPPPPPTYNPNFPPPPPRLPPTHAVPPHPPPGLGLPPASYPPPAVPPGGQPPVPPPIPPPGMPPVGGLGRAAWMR
# Protocol: In the context of the present invention, the term “DC50 CDK12” refers to the DC50 values obtained according to the assay described in this section (6) herein below, i.e. the DC50 values for the degradation of CDK12.
# (§1) CAL-120 human breast cancer cells (DSMZ ACC 459) are seeded in 1536-well microtiter plates (800 cells per well) containing 50 nanoL of compounds in Dose-Response. Control wells received DMSO or Reference Example 1. Plates are then incubated for 24 h at 37° C. in an humidified incubator and fixed with 4% PFA for 10 min. Then immunofluorescence (IF) against CDK12 (CellSignalling CDK12 Antibody #11973, rabbit, 1:100 dilution) is performed using standard IF protocols. Cells are then stained with Hoechst 33342 (Life Technologies, H-1399, 0.1 microg/ml) and imaged on an automated confocal microscopy system (e.g. Perkin Elmer Opera Phenix). Nuclear and cytoplasmic intensity as well as the nuclear/cytoplasmic intensity ratio is determined by automated image analysis using custom generated scripts (MetaXpress). Data is then transferred to Genedata Screener software, normalized to DMSO and control and DC50 values (degrading concentration to achieve 50% reduction of nuclear CDK12 staining intensity relative to controls) are reported.
# CYCLIN K = CYCLIN K nuclear protein level: immunofluorescence/high content analysis in CAL-120 cells; type: cell-based, human; conditions: 24 h, nuclear CCNK staining, read-out: CYCLIN K degradation IF, DC50-[mol/l] (median)
# Protocol: In the context of the present invention, the term “DC50 Cyclin K” refers to the DC50 values obtained according to the assay described in this section (7) herein below, i.e. the DC50 values for the degradation of Cyclin K.
# as §1, with “CYCLIN K (ThermoFisher Scientific CCNK” for “CDK12 (CellSignalling CDK12”, “#PA5-85020,” for “#11973,”, “1:200” for “1:100”, “CCNK” for “CDK12”
# CDK12/CycK = molecular target: T2, CDK12/CycK (Homo sapiens, UniProt Q9NYV4); assay: CDK12/CycK high ATP kinase assay (TR-FRET, 2 mM ATP); type: biochemical; conditions: read-out: CDK12/CyclinK, 2 mM ATP (high ATP), IC50-[mol/l] (median)
# T2 construct: His-CDK12 (aa Q696-S1082); made in house; host or cells: Hi-5 insect cells (baculovirus co-infection with CAK1)
# T2 sequence (Q9NYV4 with tags, fused parts or gaps): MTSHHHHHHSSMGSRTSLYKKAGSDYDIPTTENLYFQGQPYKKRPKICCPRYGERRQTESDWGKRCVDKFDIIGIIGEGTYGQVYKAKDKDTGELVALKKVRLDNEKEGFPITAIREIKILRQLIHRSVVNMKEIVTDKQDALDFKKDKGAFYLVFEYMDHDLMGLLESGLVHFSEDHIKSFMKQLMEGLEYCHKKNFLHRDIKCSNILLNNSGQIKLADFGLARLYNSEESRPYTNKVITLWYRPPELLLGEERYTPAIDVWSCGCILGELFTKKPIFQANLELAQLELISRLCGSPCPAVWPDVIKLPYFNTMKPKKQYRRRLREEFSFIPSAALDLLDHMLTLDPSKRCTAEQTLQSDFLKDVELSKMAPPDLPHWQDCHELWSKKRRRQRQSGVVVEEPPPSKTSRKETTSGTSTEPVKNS
# T2 sequence (O75909 with tags, fused parts or gaps partner limits assumed): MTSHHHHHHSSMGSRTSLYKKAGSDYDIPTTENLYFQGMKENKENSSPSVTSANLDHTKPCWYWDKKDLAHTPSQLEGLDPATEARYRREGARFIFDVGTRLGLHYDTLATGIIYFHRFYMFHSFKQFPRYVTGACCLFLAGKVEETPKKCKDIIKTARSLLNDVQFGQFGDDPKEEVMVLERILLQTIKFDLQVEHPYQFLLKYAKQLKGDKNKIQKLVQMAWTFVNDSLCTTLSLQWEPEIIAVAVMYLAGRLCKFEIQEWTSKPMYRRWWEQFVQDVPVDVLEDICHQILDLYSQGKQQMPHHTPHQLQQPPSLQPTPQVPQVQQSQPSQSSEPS
# Source text: In the context of the present invention, the term “IC50 CDK12 hATP” refers to the IC50 values obtained according to the assay described in this section (2.2) herein below, i.e. the IC50 values for the inhibition of CDK12 at high ATP.
# CDK12/CycK-inhibitory activity of compounds of the present invention at 2 millimol/L adenosine-tri-phosphate (ATP) was quantified employing the TR-FRET (TR-FRET=Time Resolved Fluorescence Energy Transfer) based CDK12/CycK activity inhibition assay as described in the following paragraphs.
# A complex of human recombinant CDK12 and human recombinant CycK (both N-terminally His-tagged, expression and purification as described above) was used as enzyme. As substrate for the kinase reaction biotinylated peptide biotin-Ahx-KFELLPTPPLSPSRRSGL (C-terminus in amid form) was used which can be purchased e.g. form the company Biosyntan (Berlin-Buch, Germany).
# For the assay 50 nanoL of a 100 fold concentrated solution of the test compound in DMSO was pipetted into either a black low volume 384 well microtiter plate or a black 1536 well microtiter plate (both Greiner Bio-One, Frickenhausen, Germany), 2 microL of a solution of CDK12/CycK in aqueous assay buffer [25 millimol/L HEPES pH 7.5, 20 millimol/L MgCl2, 5 millimol/L ß-glycerophosphate, 2 millimol/L EGTA, 1.0 millimol/L dithiothreitol, 0.01% (v/v) Nonidet-P40 (Sigma), 0.01% (w/v) bovine serum albumin] were added and the mixture was incubated for 15 min at 22° C. to allow pre-binding of the test compounds to the enzyme before the start of the kinase reaction. Then the kinase reaction was started by the addition of 3 microL of a solution ATP (3.33 millimol/L=> final conc. in the 5 microL assay volume is 2 millimol/L) and substrate (1.67 micromol/L=> final conc. in the 5 microL assay volume is 1 micromol/L) in assay buffer and the resulting mixture was incubated for a reaction time of 60 min at 22° C. The concentration of CDK12/CycK was adjusted depending of the activity of the enzyme lot and was chosen appropriate to have the assay in the linear range, typical concentrations were about 0.75 nanomol/L. The reaction was stopped by the addition of 3 microL of a solution of TR-FRET detection reagents (125 nanomol/L streptavidine-XL665 [Cisbio Bioassays, Codolet, France] and 0.67 nanomol/L anti-Phospho-c-Myc (Ser 62) (E1J4K)-antibody from Cell Signalling [#13748] and 2 nanomol/L LANCE EU-W1024 labeled anti-rabbit IgG antibody [Perkin-Elmer, product no. 0083]) in an aqueous EDTA-solution (133 millimol/L EDTA, 0.27% (w/v) bovine serum albumin in 66.7 millimol/L HEPES pH 7.5).
# The resulting mixture was incubated 1 h at 22° C. to allow the formation of complex between the phosphorylated biotinylated peptide and the detection reagents. Subsequently the amount of phosphorylated substrate was evaluated by measurement of the resonance energy transfer from the Eu-chelate to the streptavidine-XL. Therefore, the fluorescence emissions at 620 nm and 665 nm after excitation at 350 nm was measured in a TR-FRET reader, e.g. a Pherastar FS (BMG Labtechnologies, Offenburg, Germany) or a Viewlux (Perkin-Elmer). The ratio of the emissions at 665 nm and at […] was taken as the measure for the amount of phosphorylated substrate. The data were normalised (enzyme reaction without inhibitor=0% inhibition, all other assay components but no enzyme=100% inhibition).
Compound,DC50 (CDK12),(IC50 CDK12 high ATP) to (Degradation DC50 CDK12) ratio (CDK12),DC50 (CYCLIN K),IC50 (CDK12/CycK)
"COc1cccc2[nH]c(CNc3nc(N4C[C@@H](C)N[C@@H](C)C4)nn4c(Br)cnc34)nc12 [Example 14, 7-bromo-2-[rel-(3R,5S)-3,5-dimethylpiperazin-1-yl]-N-[(4-methoxy-1H-benzimidazol-2-yl)methyl]imidazo[2,1-f][1,2,4]triazin-4-amine]",0.495 nM,4066,0.225 nM,2010 nM
"COc1cccc2[nH]c(CNc3nc(N4CCNCC4)nn4c(Br)cnc34)nc12 [Example 15, 7-bromo-N-[(4-methoxy-1H-benzimidazol-2-yl)methyl]-2-(piperazin-1-yl)imidazo[2,1-f][1,2,4]triazin-4-amine]",1.16 nM,1790,1.41 nM,2090 nM
"COc1cccc2[nH]c(CNc3nc(N4CCN(C)CC4)nn4c(Br)cnc34)nc12.O=CO [Example 16, 7-bromo-N-[(4-methoxy-1H-benzimidazol-2-yl)methyl]-2-(4-methylpiperazin-1-yl)imidazo[2,1-f][1,2,4]triazin-4-amine Formate (1/1)]",1.32 nM,4779,0.954 nM,6290 nM
"OC[C@@H]1CCCCN1c1nc(NCc2nc3ccccc3[nH]2)c2ncc(Br)n2n1 [Example 17, [(2S)-1-(4-{[(1H-benzimidazol-2-yl)methyl]amino}-7-bromoimidazo[2,1-f][1,2,4]triazin-2-yl)piperidin-2-yl]methanol]",7.62 nM,15,3.94 nM,116 nM
"C[C@@H]1CN(c2nc(NCc3nc4c(F)cccc4[nH]3)c3ncc(Br)n3n2)C[C@H](C)N1 [Example 18, 7-bromo-2-[rel-(3R,5S)-3,5-dimethylpiperazin-1-yl]-N-[(4-fluoro-1H-benzimidazol-2-yl)methyl]imidazo[2,1-f][1,2,4]triazin-4-amine]",0.631 nM,2854,0.505 nM,1800 nM
"C[C@@H]1CN(c2nc(NCc3nc4cc(F)ccc4[nH]3)c3ncc(Br)n3n2)C[C@H](C)N1 [Example 19, 7-bromo-2-[rel-(3R,5S)-3,5-dimethylpiperazin-1-yl]-N-[(5-fluoro-1H-benzimidazol-2-yl)methyl]imidazo[2,1-f][1,2,4]triazin-4-amine]",0.513 nM,12546,0.0931 nM,6430 nM
"Fc1ccc2[nH]c(CNc3nc(N4CCOCC4)nn4c(Br)cnc34)nc2c1 [Example 20, 7-bromo-N-[(5-fluoro-1H-benzimidazol-2-yl)methyl]-2-(morpholin-4-yl)imidazo[2,1-f][1,2,4]triazin-4-amine]",0.842 nM,4106,0.0659 nM,3460 nM
"CN1CCN(c2nc(NCc3nc4cc(F)ccc4[nH]3)c3ncc(Br)n3n2)CC1 [Example 21, 7-bromo-N-[(5-fluoro-1H-benzimidazol-2-yl)methyl]-2-(4-methylpiperazin-1-yl)imidazo[2,1-f][1,2,4]triazin-4-amine]",2.78 nM,5916,0.227 nM,16500 nM
"Fc1cccc2[nH]c(CNc3nc(N4CCNCC4)nn4c(Br)cnc34)nc12 [Example 22, 7-bromo-N-[(4-fluoro-1H-benzimidazol-2-yl)methyl]-2-(piperazin-1-yl)imidazo[2,1-f][1,2,4]triazin-4-amine]",1.96 nM,1305,0.589 nM,2560 nM
"CN1CCN(c2nc(NCc3nc4c(F)cccc4[nH]3)c3ncc(Br)n3n2)CC1 [Example 23, 7-bromo-N-[(4-fluoro-1H-benzimidazol-2-yl)methyl]-2-(4-methylpiperazin-1-yl)imidazo[2,1-f][1,2,4]triazin-4-amine]",4.04 nM,2680,0.863 nM,10800 nM
"C[C@@H]1CN(c2nc(NCc3nc4ccccc4[nH]3)c3ncc(C(F)(F)F)n3n2)C[C@H](C)N1.O=CO [Example 24, N-[(1H-benzimidazol-2-yl)methyl]-2-[rel-(3R,5S)-3,5-dimethylpiperazin-1-yl]-7-(trifluoromethyl)imidazo[2,1-f][1,2,4]triazin-4-amine Formate (1/1)]",0.274 nM,2691,0.0613 nM,737 nM
"CN1CCN(c2nc(NCc3nc4ccccc4[nH]3)c3ncc(C(F)(F)F)n3n2)CC1 [Example 25, N-[(1H-benzimidazol-2-yl)methyl]-2-(4-methylpiperazin-1-yl)-7-(trifluoromethyl)imidazo[2,1-f][1,2,4]triazin-4-amine]",3.55 nM,3050,1.66 nM,10800 nM
"FC(F)(F)c1cnc2c(NCc3nc4ccccc4[nH]3)nc(N3CCOCC3)nn12 [Example 26, N-[(1H-benzimidazol-2-yl)methyl]-2-(morpholin-4-yl)-7-(trifluoromethyl)imidazo[2,1-f][1,2,4]triazin-4-amine]",4.79 nM,36,0.552 nM,172 nM
